According to patent EP1655608A1, “CFTR as a component of an autophagy signaling pathway, applications thereof to autophagic diseases, and determination of cystic fibrosis as an autophagic disease” (priority 2004, dated 2006):

How the values were obtained:
[1] = system: PKA; assay: CREB phosphorylation as readout of PKA activity; format: cell-based
Text: The emerging issue is therefore how Lindane could activate CFTR Cl^- currents. One possibility would be that Lindane directly activates CFTR, but this appears unlikely because it required minutes instead of seconds to increase Cl^- conductance. […] To further explore this hypothesis, we tested the effect of Lindane on the renal proximal cell line (PCT1). […] Of particular interest, we provide several lines of evidence that the CFTR Δex10 channels remained functional in response to Lindane in PCT cells. […] These finding provide the first evidence that an agonist, e.g. Lindane, could activate CFTR Cl- current independently of PKA, raising the promise for new strategies using Lindane to restore Cl-conductance in cystic fibrosis patients with CFTR variants on PKA sites.

[2] = system: p38; conditions: Lindane-treated cells; ref (38); cited from earlier work
[3] = system: CFTR Δex10; assay: Whole-cell patch-clamp Cl- currents in renal proximal PCT cells; format: cell-based, mouse
Method: Whole cell currents were monitored from Sertoli cells, CFTR^-/- and WT renal epithelial cells with an RK 400 amplifier (Biologic, Münster, Germany) as previously described (40). The bath (extracellular) solution consisted of 140 mM NMDGCl (N-methyl-D-glucamine chloride), 5 mM D-Glucose, 1 mM CaCl2, and 10 mM HEPES, pH 7.4. Patch pipette (intracellular) solution contained 140 mM NMDGCl, 5 mM D-Glucose, 5 mM EGTA, 5 mM MgATP, and 10 mM HEPES, pH 7.4. Osmolarity of both solutions was adjusted to 280 mOSM by adding mannitol. These solutions were designed to study Cl^- currents because Cl^- is the sole permeant ion in these conditions and to prevent Ca^2+ activated Cl^- currents by the addition of EGTA in the patch solution. After establishment of whole cell configuration, cells were stimulated by the addition of Lindane (50 µM), FSK (10 µM), vehicle (Me2S0 or ethanol) in the absence or the presence of NPPB (0.1mM), DIDS (4,4'-diisothiocyanatostilbene-2,2'-disulfonic acid, 1 mM, Sigma), glibenclamide (0.1mM, Sigma) or PD98059 (10 µM) in the bath solution. The cell membrane potential was clamped at -50mV and 400 ms pulses were applied from -100 to +120 mV with increments of 20 mV every 2 s. To generate whole cell current-voltage (I-V) relationship, membrane currents resulting from voltage stimuli were recorded for at least 3 min and analysed using an IBM-AT-compatible computer equipped with Digidata 1200 interface (Axon Instruments) and pCLAMP software (versions 5.51 and 6.0, Axon Instruments), respectively. Statistics-Results are expressed as mean ± S.E. of n observations using the Student's t test.

[4] = system: renal cells; assay: Lindane-induced autophagic vacuolation of renal cells (electron microscopy); format: cell-based, mouse
Method: To address the importance of CFTR in autophagy, renal cells derived from distal tubules or the proximal convoluted tubules of Wild type (WT or CFTR^+/+) or CFTR deficient (CFTR^-/-) mice (40) were isolated and immortalized with the pSV3 neo vector, as described below (55).
The ultrastructural changes caused by Lindane or starvation in Sertoli and renal cells were analysed by transmission electron microscopy, as previously described (57). Briefly, control and Lindane-treated cells (50 µM, 24 h) were scraped from the culture dish in PBS EDTA 1mM, pelleted and fixed with ice-cold 2.5% glutaraldehyde (TAAB, #G004) in 0.1 M Na cacodylate, pH 7.4 for at least 1 h at 4°C. Cell pellets were then rinsed in cacodylate buffer, postfixed in 1% OsO4 for 1 h at 4°C, dehydrated through graded ethanol washes, and embedded in epoxy resin. Oriented […] sections were obtained with diamond knives, and representative areas were chosen for ultra-thin sectioning. Thin […] sections were mounted on copper mesh grids, stained with uranyl acetate and lead citrate, and examined on a JEOL 1200 EXII electron microscope. 30-50 micrographs were taken randomly from each sample at primary magnification × 10,000.

Cl[C@H]1[C@H](Cl)[C@@H](Cl)[C@@H](Cl)[C@H](Cl)[C@H]1Cl [Lindane, γ-hexachlorocyclohexane]
CREB phosphorylation ([1]; Lindane treatment): dramatic phosphorylation of CREB | PKA activation ([1]; concluded from H89 experiment): did not activate PKA | activation of Jun kinases or p38 [2]: not activated | induction of Cl- current in PCT cells ([3]; CFTR^+/+ PCT cells, Lindane 50 µM, forskolin 10 µM): induced a Cl- current | Lindane-induced Cl- current in CFTR^-/- PCT cells ([3]; CFTR^-/- PCT cells): total inhibition | anion selectivity sequence of induced current ([3]; PCT cells): Br^-≥ Cl^- >>I^- | reversal potential of induced current ([3]; PCT cells): ~ 0 mV | autophagic vacuolation in CFTR-expressing renal cells ([4]; CFTR^+/+ renal cells): could be generalized to renal cells, provided CFTR was expressed | response in renal cells lacking CFTR expression ([4]; CFTR^-/- renal cells): dramatic accumulation of lamellar structures and little if any large autophagic vacuoles
